Data from ChEMBL document CHEMBL1201862, “PubChem BioAssay data set” (2004).
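Exposure lasted 48 hours, with cells grown in 96-well plates and compounds tested at five concentrations. At the GI50, growth is halved.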 The source made the active and inactive calls. Cut-off read from the data, not from the text of the source: active = GI50 up to about 1.1 µM and inactive = higher.

Legend:
Assay in all cases: growth of human tumour cells (NCI), 48 h
[1] = tested on: CAKI-1
[2] = tested on: CCRF-CEM
[3] = tested on: DMS-114
[4] = tested on: EKVX
[5] = tested on: HCC 2998
[6] = tested on: HOP-62
[7] = tested on: HOP-92
[8] = tested on: HT-29
[9] = tested on: K562
[10] = tested on: KM12
[11] = tested on: MOLT-4
[12] = tested on: NCI-H522
[13] = tested on: OVCAR-4
[14] = tested on: OVCAR-8
[15] = tested on: RXF 393
[16] = tested on: SK-MEL-5
[17] = tested on: SN12C
[18] = tested on: SNB-19
[19] = tested on: SW-620
[20] = tested on: UO-31

Measured: GI50

CC(=O)c1cccc(NC(=O)C(=O)C(C(=O)NN)c2ccccc2)c1 (stereo not given)
inactive: [1] > 100 µM | [2] > 100 µM | [3] > 100 µM | [4] > 100 µM | [5] 51.6 µM | [6] > 100 µM | [7] > 100 µM | [8] > 100 µM | [9] > 100 µM | [10] > 100 µM | [11] > 100 µM | [12] > 100 µM | [13] > 100 µM | [14] > 100 µM | [15] > 100 µM | [16] > 100 µM | [17] > 100 µM | [18] > 100 µM | [19] > 100 µM | [20] > 100 µM

CS(=O)(=O)OCCCCOS(C)(=O)=O [BUSULFAN]
inactive: [1] 161 µM | [2] 145 µM | [3] 225 µM | [4] > 201 µM | [5] 183 µM | [6] 187 µM | [7] 198 µM | [8] 247 µM | [9] 201 µM | [10] > 250 µM | [11] 124 µM | [12] 239 µM | [13] 214 µM | [14] 237 µM | [15] 182 µM | [16] 232 µM | [17] 233 µM | [18] 222 µM | [19] 224 µM | [20] 244 µM
